Experimental data as given in PubChem BioAssay (NCI).
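A five-concentration, 48-hour dose response in 96-well plates underlies each endpoint, interpolated linearly between surrounding concentrations. At the TGI there is no net growth.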

What was measured:
Assay in all cases: growth of human tumour cells (NCI), 48 h
[1] = tested on: A498 renal
[2] = tested on: A549 NSCLC
[3] = tested on: ACHN renal
[4] = tested on: DU-145 prostate
[5] = tested on: EKVX NSCLC
[6] = tested on: HCT-15 colon
[7] = tested on: HS 578T breast
[8] = tested on: IGROV1 ovarian
[9] = tested on: M14 melanoma
[10] = tested on: MDA-MB-435
[11] = tested on: RPMI-8226 leukemia
[12] = tested on: SK-OV-3 ovarian
[13] = tested on: SNB-19 CNS
[14] = tested on: SR leukemia
[15] = tested on: SW-620 colon
[16] = tested on: UACC-257 melanoma
[17] = tested on: OVCAR-4 ovarian

SMILES	TGI [1] [µM]	TGI [2] [µM]	TGI [3] [µM]	TGI [4] [µM]	TGI [5] [µM]	TGI [6] [µM]	TGI [7] [µM]	TGI [8] [µM]	TGI [9] [µM]	TGI [10] [µM]	TGI [11] [µM]	TGI [12] [µM]	TGI [13] [µM]	TGI [14] [µM]	TGI [15] [µM]	TGI [16] [µM]	TGI [17] [µM]
CC1=C(C(=O)OC2CC3CCC2(C)C3(C)C)C2Nc3ccccc3N(C)C2O1 (stereo not given)	18.9	4.53	11.2	2.79	21.1	5.6	16.3	6.97	3.22	3.13	6.78	14.5	10.1	9.52	6.99	3.3	–
CSC1=N/C(=C\c2ccc(Cl)cc2)C(=O)N1CN1CCCCC1	> 100	> 100	96.2	> 100	53.3	> 100	> 100	93.2	> 100	> 100	> 100	> 100	–	> 100	> 100	–	–
O=c1oc2ccc3ccccc3c2cc1-c1nnc(Nc2ccccc2)s1	22.4	59	27.2	55.5	> 100	> 100	> 100	–	> 100	> 100	50.9	–	65.4	81.7	–	> 100	38.8
Cc1cc(S(=O)(=O)NC2=NCc3nc4ccccc4n32)c(S)cc1Cl	70.7	83.2	> 100	> 100	86	59.1	63.3	69.7	63	82.8	47.6	–	> 100	49.4	> 100	62.2	83.2
CC1=NN(c2cccc(Cl)c2)C2(SCC(=O)N2c2nc3ccccc3s2)C1=CC=Cc1ccccc1 (stereo not given)	61.9	–	65.9	68.6	> 100	> 100	63.4	> 100	> 100	> 100	> 100	68.5	–	61.8	> 100	> 100	> 100
CCOC(=O)C(C(=O)OCC)=C1SC(=Nc2ccccc2)C(=Nc2ccccc2)N1c1ccccc1	> 100	> 100	> 100	> 100	> 100	> 100	> 100	> 100	–	> 100	> 100	> 100	> 100	> 100	–	–	–
N#Cc1ccc(C(O)C(F)(F)c2nc3ccccc3o2)cc1 (stereo not given)	–	–	> 100	> 100	> 100	> 100	> 100	> 100	> 100	> 100	> 100	> 100	> 100	> 100	> 100	> 100	> 100
CC[C@]12C=CCN3CC[C@@]4(c5cc(N=O)c(OC)cc5N(C)[C@H]4[C@@](O)(C(=O)OC)[C@@H]1OC(C)=O)[C@@H]32	> 100	> 100	> 100	> 100	> 100	> 100	> 100	> 100	> 100	74.8	–	> 100	> 100	> 100	> 100	> 100	> 100
Cc1cc(S(=O)(=O)Nc2n[nH]c(-c3ccc(Cl)cc3)n2)c(SSc2cc(Cl)c(C)cc2S(=O)(=O)Nc2n[nH]c(-c3ccc(Cl)cc3)n2)cc1Cl	59.1	> 100	98.5	> 100	89.6	69.1	> 100	69.2	> 100	> 100	> 100	> 100	–	55.3	73.5	> 100	> 100
O=C1/C(=C/c2cccc(Cl)c2)CCCc2ccccc21	–	> 100	29.6	40.2	35.9	39.2	32.9	31.8	29.9	31.6	42.5	> 100	31.5	35.2	33.9	46.5	31.4
COc1cc(OC)cc(OCc2nc3cc(C(F)(F)F)ccc3nc2-c2ccccc2)c1	–	> 100	> 100	> 100	> 100	> 100	> 100	> 100	> 100	> 100	> 100	> 100	> 100	> 100	> 100	> 100	> 100
COc1ccc2c(c1)Cc1c(NCCN(C)C)ccc(C(=O)NCCCN(C)CCCNC(=O)c3ccc(NCCN(C)C)c4c3Nc3ccc(OC)cc3C4)c1N2	0.833	0.512	9.79	1.04	0.643	> 74.3	0.332	3.95	1.79	0.191	–	0.502	1.13	0.502	8.65	1.1	0.448
CC(=O)OCCn1cnc2c(NCC=C(C)C)ncnc21	> 100	> 100	> 100	> 100	> 100	–	> 100	> 100	> 100	> 100	> 100	> 100	> 100	> 100	> 100	> 100	> 100
COc1ccc(N=c2oc3ccccc3cc2C(N)=O)cc1	–	> 100	37.1	> 100	> 100	> 100	42.9	> 100	> 100	> 100	> 100	47.7	24.7	> 100	> 100	> 100	–
CC(=O)c1nc2ccccc2n1C(C)C(=O)c1ccccc1 (stereo not given)	> 100	> 100	–	> 100	> 100	> 100	> 100	> 100	> 100	> 100	> 100	> 100	> 100	> 100	> 100	> 100	> 100
